Reference: US5925618A, “Peptides useful as somatostatin antagonists” (American Cyanamid Company, priority 1998, dated 1999)
Square brackets hold non-standard residues; d marks the D form. Peptide text beside a SMILES is read from it.

Experiments:
SSTR2 = molecular target: T1, SSTR2 (Rattus norvegicus, UniProt P30680); assay: Competitive binding of 125I labeled S-14 to membranes of cells expressing SSTR2; conditions: 125I labeled S-14, membranes
T1 construct: expressed in transfected cells
Protocol: Membrane preparation. Tissue culture cell lines expressing transfected CDNA clones of SSTR2, and SSTR5 are used as a source of plasma membranes which specifically bind ^125 I labeled S-14 (Amersham, Arlington Heights, Ill.). Cells are removed from culture dishes by incubation at 4° C. for 5 minutes in PBS containing 1 mM EDTA, spun down (2,000 rpm, 5') and resuspended in 15 mL homogenization buffer (1 mM sodium bicarbonate pH 7.2, 1 mM EDTA, 1 mM EGTA and the following protease inhibitors: leupeptin and aprotenin at 5 μg/mL and benzamidine and bacitracin at 100 μg/mL). Cells are given 20 strokes with a Dounce homogenizer on ice and spun at 2000 rpm for 10 minutes. Membranes are isolated from the supernatant by centrifugation at 17,000 rpm for 30 minutes. The membrane pellet is washed once in 15 mL homogenization buffer and once in storage buffer (25 mM Tris pH 7.4 containing protease inhibitors). Each wash is followed by centrifugation at 17,000 rpm for 30 minutes. The membrane pellet is resuspended in storage buffer, measured for protein concentration (BioRad, Calif.) and stored at -80° C.
Binding assay. All reagents for the binding assay are prepared in binding buffer (50 mM Hepes pH 7.4, 2 mM EGTA, 5 mM MgCl2 and protease inhibitors). Membranes are thawed on ice and diluted to […] protein/50 μL binding buffer. ^125 I labeled S-14 (Amersham, Arlington Heights, Ill.) is diluted to 80-100,000 cpm/50 μL in binding buffer. Competitors, either test peptides or standards, are prepared at 4× final concentrations in binding buffer, as are wheat germ agglutinin (WGA)-linked PVC beads that contain solid scintillant (SPA beads, Amersham, Arlington Heights, Ill.). The binding assay is initiated by mixing 50 μL each of membranes, radiolabelled S-14, competitors and SPA beads in each well of a 96-well tray. The assay is incubated by shaking for 10-30 minutes at room temperature and then placing at 4° C. overnight. Bound radioligand is determined by counting in a Microbeta Liquid Scintillation counter (Wallac, Gaithersburg, Md.). Binding data is plotted and IC50 and Ki values are calculated for test compounds using Prism software (Graphpad Software Inc., San Diego, Calif.) and are shown in Table V. Binding is expressed as Ki, μM.

[1] = molecular target: T2, S. cerevisiae (yeast) cells expressing SRIF receptors (Rattus norvegicus, UniProt P30680); assay: Yeast bioassay for SRIF antagonist activity (LY364 cells growing in response to SRIF, zone of growth inhibition); assay type: cell-based; conditions: Sample type 4th iteration; 10 μL of 5 mg/mL on disk, SRIF 10 nM, read after 3 days
T2 construct: expressed in transfected cells; host or cells: S. cerevisiae strain LY364
T2 sequence (P30680 whole entry): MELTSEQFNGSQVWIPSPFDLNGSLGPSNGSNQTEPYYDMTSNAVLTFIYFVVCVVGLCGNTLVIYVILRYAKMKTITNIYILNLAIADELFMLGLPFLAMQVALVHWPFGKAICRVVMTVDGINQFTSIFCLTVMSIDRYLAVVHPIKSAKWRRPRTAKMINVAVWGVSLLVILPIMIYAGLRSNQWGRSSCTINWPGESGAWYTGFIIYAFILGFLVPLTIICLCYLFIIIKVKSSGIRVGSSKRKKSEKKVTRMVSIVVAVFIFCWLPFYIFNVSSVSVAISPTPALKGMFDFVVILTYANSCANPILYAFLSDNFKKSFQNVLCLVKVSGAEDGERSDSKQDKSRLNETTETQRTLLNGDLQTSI
Text: SRIF antagonist assay using S. cerevisiae (yeast) cells expressing SRIF receptors that grow in response to SRIF
Agar plates containing LY364 cells that are growing in the presence of added SRIF are the basis for a sensitive SRIF antagonist assay, whereby zones of growth inhibition result from the addition of SRIF antagonists to the surface of the agar plate (see L. A. Price, et al., Molecular and Cellular Biology, 15, 6188-6195, 1995, incorporated herein by reference).
In this assay, LY364 cells are grown overnight in 2 mL of synthetic complete(SC) medium (3.4 g/L YNB without amino acids and ammonium sulfate, 10 g/L ammonium sulfate and 1.4 g/L CSM-ura-trp) with glucose (2%) and without uracil and tryptophan. These cells are washed and cultured for 4 to 8 hours in 5 mL of SC medium with lactate (3%) and without uracil and tryptophan, and finally grown overnight in 5 mL of SC medium with galactose (2%) and without uracil and tryptophan. Molten (50° C.) SC agar medium with galactose (2%) and without uracil, tryptophan and histidine is adjusted to pH 6.8 with KOH, mixed with 2×10^4 cells/mL and SRIF (S-14, 10 nM) and poured into square (20×20 cm) petri dishes. Sterile filter disks are placed on the surface of the agar, and saturated with 10 μL of water or DMSO containing 5 mg/mL test peptides. After three days, the plates display a uniform cloudy background of LY264 cells growing in response to the added SRIF. […] This zone is quantified by measuring its diameter (mm), which varies according to the potency of the SRIF antagonist. Those peptides or mixtures of peptides displaying the largest zones of inhibition are further characterized.
Values are compared among samples in the same experiment, as the degree of yeast growth varies somewhat from assay to assay. For the first five sample types, in which progressively less complex mixtures of peptides are found, this assay is the primary determining factor in choosing which samples form the basis of subsequent syntheses.
Plates are read after 3 days. Samples shown in Table I in bold type are chosen for further synthesis. In Table I, all amino acids are D-amino acids and dashes represent undefined amino acid residues.

Male Sprague-Dawley rats = assay: Serum growth hormone levels in anaesthetized rats given GRF with and without peptide 1; assay type: in vivo, rat
Protocol: Evaluation in anaesthetized rats. Male Sprague-Dawley rats are anaesthetized with Sagatal and fitted so as to allow efficient intravenous treatment with control and test compounds as well as frequent blood sampling. Blood samples are tested for growth hormone (GH) levels by radioimmunoassay. Thirty minutes after the initiation of blood sampling, rats are given 5 μg, 25 μg or 50 μg of peptide 1.
Peptide 1 is tested in combination with growth hormone releasing factor (GRF), to investigate whether said peptide may be mimicking the action of GRF. Anaesthetized rats are given GRF (1 μg) alone and in combination with peptide 1 (50 μg).

T1 sequence (P30680 whole entry): as above

Row | Ki (SSTR2) [nM] | Inhibition Zone [1] [mm] | Compound | further results
1 | 970 |  | CC[C@@H](C)[C@@H](NC(=O)[C@@H](Cc1c[nH]c2ccccc12)NC(=O)[C@@H](Cc1c[nH]cn1)NC(C)=O)C(=O)N[C@H](CCCNC(=N)N)C(=O)N[C@H](Cc1ccccc1)C(=O)N[C@H](Cc1ccccc1)C(N)=O [Peptide 29, h-w-i-r-f-f] (Ac-[dH][dW][dI][dR][dF][dF]-NH2) | 
2 | 2800 |  | CC[C@@H](C)[C@@H](NC(=O)[C@@H](CCCNC(=N)N)NC(=O)[C@@H](Cc1c[nH]c2ccccc12)NC(=O)[C@@H](Cc1ccccc1)NC(=O)[C@@H](Cc1c[nH]cn1)NC(C)=O)C(=O)N[C@H](Cc1ccccc1)C(N)=O [Peptide 30, h-f-w-r-i-f] (Ac-[dH][dF][dW][dR][dI][dF]-NH2) | 
3 | 2500 |  | CC[C@@H](C)[C@@H](NC(=O)[C@@H](CCCNC(=N)N)NC(=O)[C@@H](Cc1ccccc1)NC(=O)[C@@H](Cc1c[nH]cn1)NC(C)=O)C(=O)N[C@H](Cc1c[nH]c2ccccc12)C(=O)N[C@H](Cc1ccccc1)C(N)=O [Peptide 31, h-f-r-i-w-f] (Ac-[dH][dF][dR][dI][dW][dF]-NH2) | 
4 | 2800 |  | CC[C@@H](C)[C@@H](NC(C)=O)C(=O)N[C@H](CCCNC(=N)N)C(=O)N[C@H](Cc1c[nH]c2ccccc12)C(=O)N[C@H](Cc1ccccc1)C(=O)N[C@H](Cc1c[nH]cn1)C(=O)N[C@H](Cc1ccccc1)C(N)=O [Peptide 33, i-r-w-f-h-f] (Ac-[dI][dR][dW][dF][dH][dF]-NH2) | 

The next lines start with the compound.

Row | Compound | Ki (SSTR2) [nM] | Inhibition Zone [1] [mm] | further results
5 | CC[C@@H](C)[C@H]1NC(=O)[C@@H](Cc2ccccc2)NC(=O)[C@@H](Cc2c[nH]cn2)NC(=O)[C@@H](Cc2ccccc2)NC(=O)[C@@H](Cc2c[nH]c3ccccc23)NC(=O)[C@@H](CCCNC(=N)N)NC1=O [#STR6##] (cyclo([dH][dF][dI][dR][dW][dF])) | 140 |  | 
6 | CC[C@@H](C)[C@@H](NC(=O)[C@@H](Cc1ccccc1)NC(=O)[C@@H](Cc1c[nH]cn1)NC(C)=O)C(=O)N[C@H](CCCNC(=N)N)C(=O)N[C@H](Cc1c[nH]c2ccccc12)C(=O)N[C@@H](C(N)=O)[C@H](C)O [His Phe Ile Arg Trp Thr] (Ac-[dH][dF][dI][dR][dW][dT]-NH2) |  | 14 | 
7 | CC[C@@H](C)[C@@H](NC(=O)[C@@H](Cc1ccccc1)NC(=O)[C@@H](Cc1c[nH]cn1)NC(C)=O)C(=O)N[C@H](CCCNC(=N)N)C(=O)N[C@H](Cc1c[nH]c2ccccc12)C(=O)N[C@H](Cc1c[nH]c2ccccc12)C(N)=O [His Phe Ile Arg Trp Trp] (Ac-[dH][dF][dI][dR][dW][dW]-NH2) |  | 16 | 
8 | CC[C@@H](C)[C@@H](NC(=O)[C@@H](Cc1ccccc1)NC(=O)[C@@H](Cc1c[nH]cn1)NC(C)=O)C(=O)N[C@H](CCCNC(=N)N)C(=O)N[C@H](Cc1c[nH]c2ccccc12)C(=O)N[C@H](Cc1ccc(O)cc1)C(N)=O [His Phe Ile Arg Trp Tyr] (Ac-[dH][dF][dI][dR][dW][dY]-NH2) |  | 16 | 
9 | CC[C@@H](C)[C@@H](NC(=O)[C@@H](Cc1ccccc1)NC(=O)[C@@H](Cc1c[nH]cn1)NC(=O)[C@@H](Cc1ccccc1)NC(=O)[C@@H](Cc1c[nH]c2ccccc12)NC(C)=O)C(=O)N[C@H](CCCNC(=N)N)C(N)=O [Peptide 32, w-f-h-f-i-r] (Ac-[dW][dF][dH][dF][dI][dR]-NH2) | 37200 |  | 
10 | growth hormone releasing factor [GRF] |  |  | SGH (Male Sprague-Dawley rats; GRF 1 μg alone or with peptide 1 50 μg at 30 min, sample 35 min): 67.1 ng/mL; SGH (Male Sprague-Dawley rats; GRF 1 μg alone or with peptide 1 50 μg at 30 min, sample 40 min): 103.5 ng/mL; SGH (Male Sprague-Dawley rats; GRF 1 μg alone or with peptide 1 50 μg at 30 min, sample 45 min): 53.1 ng/mL; SGH (Male Sprague-Dawley rats; GRF 1 μg alone or with peptide 1 50 μg, 30 min (time of dosing)): 8.4 ng/mL
